ChEMBL document CHEMBL3045532, “Synthesis and evaluation of novel prodrugs of naproxen” (Med Chem Res, 2011)
One block for each compound: values may come before it.

Key:
Rattus norvegicus [1] = assay: Anti-inflammatory activity in Rattus norvegicus Wistar (rat) assessed as inhibition of carrageenan-induced edema volume at 66.4 mg/kg, po measured after 60 min; format: functional; conditions: 1 h
Rattus norvegicus [2] = assay: Anti-inflammatory activity in Rattus norvegicus Wistar (rat) assessed as inhibition of carrageenan-induced edema volume at 66.4 mg/kg, po measured after 120 min; format: functional; conditions: 2 h
Rattus norvegicus [3] = assay: Gastrointestinal toxicity in Rattus norvegicus Wistar (rat) assessed as ulcer at 66.4 mg/kg, po; format: organism-based; set-up: dose 66.4 mg/kg, route oral; conditions: in vivo
[4] = Prodrug conversion in phosphate buffer assessed as half-life for hydrolysis at pH 7.4; format: physicochemical
Rattus norvegicus [5] = assay: Anti-inflammatory activity in Rattus norvegicus Wistar (rat) assessed as inhibition of carrageenan-induced edema volume at 66.4 mg/kg, po measured after 30 min; format: functional; conditions: 0.5 h
[6] = Prodrug conversion in acetate buffer assessed as half-life for hydrolysis at pH 4; format: physicochemical
[7] = Prodrug conversion in acetate buffer assessed as half-life for hydrolysis at pH 3; format: physicochemical
[8] = Prodrug conversion in acetate buffer assessed as half-life for hydrolysis at pH 5; format: physicochemical
Mus musculus [9] = assay: Analgesic activity in Mus musculus (mouse) assessed as inhibition of acetic acid-induced writhing at 66.4 mg/kg, po pretreated 1 hr before acetic acid challenge; format: functional
Rattus norvegicus [10] = assay: Anti-inflammatory activity in Rattus norvegicus Wistar (rat) assessed as inhibition of carrageenan-induced edema volume at 66.4 mg/kg, po measured after 90 min; format: functional; conditions: 1.5 h
Mus musculus [11] = assay: Analgesic activity in Mus musculus (mouse) assessed as inhibition of acetic acid-induced writhing at 67.4 mg/kg, po pretreated 1 hr before acetic acid challenge; format: functional
Rattus norvegicus [12] = assay: Gastrointestinal toxicity in Rattus norvegicus Wistar (rat) assessed as ulcer at 69.4 mg/kg, po; format: organism-based; set-up: dose 69.4 mg/kg, route oral; conditions: in vivo
Rattus norvegicus [13] = assay: Anti-inflammatory activity in Rattus norvegicus Wistar (rat) assessed as inhibition of carrageenan-induced edema volume at 67.4 mg/kg, po measured after 120 min; format: functional; conditions: 2 h
Rattus norvegicus [14] = assay: Anti-inflammatory activity in Rattus norvegicus Wistar (rat) assessed as inhibition of carrageenan-induced edema volume at 67.4 mg/kg, po measured after 30 min; format: functional; conditions: 0.5 h
Rattus norvegicus [15] = assay: Anti-inflammatory activity in Rattus norvegicus Wistar (rat) assessed as inhibition of carrageenan-induced edema volume at 67.4 mg/kg, po measured after 60 min; format: functional; conditions: 1 h
Rattus norvegicus [16] = assay: Anti-inflammatory activity in Rattus norvegicus Wistar (rat) assessed as inhibition of carrageenan-induced edema volume at 67.4 mg/kg, po measured after 90 min; format: functional; conditions: 1.5 h
Mus musculus [17] = assay: Analgesic activity in Mus musculus (mouse) assessed as inhibition of acetic acid-induced writhing at 66.2 mg/kg, po pretreated 1 hr before acetic acid challenge; format: functional
Rattus norvegicus [18] = assay: Anti-inflammatory activity in Rattus norvegicus Wistar (rat) assessed as inhibition of carrageenan-induced edema volume at 66.2 mg/kg, po measured after 120 min; format: functional; conditions: 2 h
Rattus norvegicus [19] = assay: Anti-inflammatory activity in Rattus norvegicus Wistar (rat) assessed as inhibition of carrageenan-induced edema volume at 66.2 mg/kg, po measured after 60 min; format: functional; conditions: 1 h
Rattus norvegicus [20] = assay: Anti-inflammatory activity in Rattus norvegicus Wistar (rat) assessed as inhibition of carrageenan-induced edema volume at 66.2 mg/kg, po measured after 90 min; format: functional; conditions: 1.5 h
Rattus norvegicus [21] = assay: Anti-inflammatory activity in Rattus norvegicus Wistar (rat) assessed as inhibition of carrageenan-induced edema volume at 66.2 mg/kg, po measured after 30 min; format: functional; conditions: 0.5 h
Mus musculus [22] = assay: Analgesic activity in Mus musculus (mouse) assessed as inhibition of acetic acid-induced writhing at 67.8 mg/kg, po pretreated 1 hr before acetic acid challenge; format: functional
Rattus norvegicus [23] = assay: Anti-inflammatory activity in Rattus norvegicus Wistar (rat) assessed as inhibition of carrageenan-induced edema volume at 67.8 mg/kg, po measured after 120 min; format: functional; conditions: 2 h
Rattus norvegicus [24] = assay: Anti-inflammatory activity in Rattus norvegicus Wistar (rat) assessed as inhibition of carrageenan-induced edema volume at 67.8 mg/kg, po measured after 30 min; format: functional; conditions: 0.5 h
Rattus norvegicus [25] = assay: Anti-inflammatory activity in Rattus norvegicus Wistar (rat) assessed as inhibition of carrageenan-induced edema volume at 67.8 mg/kg, po measured after 60 min; format: functional; conditions: 1 h
Rattus norvegicus [26] = assay: Anti-inflammatory activity in Rattus norvegicus Wistar (rat) assessed as inhibition of carrageenan-induced edema volume at 67.8 mg/kg, po measured after 90 min; format: functional; conditions: 1.5 h
Rattus norvegicus [27] = assay: Anti-inflammatory activity in Rattus norvegicus Wistar (rat) assessed as inhibition of carrageenan-induced edema volume at 69.4 mg/kg, po measured after 90 min; format: functional; conditions: 1.5 h
Rattus norvegicus [28] = assay: Anti-inflammatory activity in Rattus norvegicus Wistar (rat) assessed as inhibition of carrageenan-induced edema volume at 69.4 mg/kg, po measured after 120 min; format: functional; conditions: 2 h
Rattus norvegicus [29] = assay: Anti-inflammatory activity in Rattus norvegicus Wistar (rat) assessed as inhibition of carrageenan-induced edema volume at 69.4 mg/kg, po measured after 60 min; format: functional; conditions: 1 h
Rattus norvegicus [30] = assay: Anti-inflammatory activity in Rattus norvegicus Wistar (rat) assessed as inhibition of carrageenan-induced edema volume at 69.4 mg/kg, po measured after 30 min; format: functional; conditions: 0.5 h
Mus musculus [31] = assay: Analgesic activity in Mus musculus (mouse) assessed as inhibition of acetic acid-induced writhing at 69.4 mg/kg, po pretreated 1 hr before acetic acid challenge; format: functional

t1/2 [4]: 30 h
t1/2 [6]: 15 h
t1/2 [7]: 44 h
t1/2 [8]: 77 h
SMILES: COc1ccc2cc(C(C)C(=O)OCC(OC(C)=O)C(OC(C)=O)C(OC(C)=O)C(/C=N/[C@@H](CS)C(=O)O)OC(C)=O)ccc2c1 (stereo not given in full)
inhibition in vivo at 66.4 mg/kg (Rattus norvegicus [1]): 30%
inhibition in vivo at 66.4 mg/kg (Rattus norvegicus [2]): 67%
Activity (Rattus norvegicus [3]): Non-toxic
inhibition in vivo at 66.4 mg/kg (Rattus norvegicus [5]): 42%
inhibition in vivo at 66.4 mg/kg (Mus musculus [9]): 30.4%
inhibition in vivo at 66.4 mg/kg (Rattus norvegicus [10]): 57%

SMILES: COc1ccc2cc(C(C)C(=O)OCC(OC(C)=O)C(OC(C)=O)C(OC(C)=O)C(/C=N/[C@@H](CC(C)C)C(=O)O)OC(C)=O)ccc2c1 (stereo not given in full)
inhibition in vivo at 67.4 mg/kg (Mus musculus [11]): 70.5%
Activity (Rattus norvegicus [12]): Non-toxic
inhibition in vivo at 67.4 mg/kg (Rattus norvegicus [13]): 64%
inhibition in vivo at 67.4 mg/kg (Rattus norvegicus [14]): 46%
inhibition in vivo at 67.4 mg/kg (Rattus norvegicus [15]): 30%
inhibition in vivo at 67.4 mg/kg (Rattus norvegicus [16]): 32%

SMILES: COc1ccc2cc(C(C)C(=O)OCC(OC(C)=O)C(OC(C)=O)C(OC(C)=O)C(/C=N/[C@H](C(=O)O)[C@@H](C)O)OC(C)=O)ccc2c1 (stereo not given in full)
inhibition in vivo at 66.2 mg/kg (Mus musculus [17]): 60.4%
inhibition in vivo at 66.2 mg/kg (Rattus norvegicus [18]): 58%
inhibition in vivo at 66.2 mg/kg (Rattus norvegicus [19]): 24%
inhibition in vivo at 66.2 mg/kg (Rattus norvegicus [20]): 39%
inhibition in vivo at 66.2 mg/kg (Rattus norvegicus [21]): 18%

SMILES: COc1ccc2cc(C(C)C(=O)OCC(OC(C)=O)C(OC(C)=O)C(OC(C)=O)C(/C=N/[C@@H](Cc3ccccc3)C(=O)O)OC(C)=O)ccc2c1 (stereo not given in full)
inhibition in vivo at 67.8 mg/kg (Mus musculus [22]): 91.2%
inhibition in vivo at 67.8 mg/kg (Rattus norvegicus [23]): 69%
inhibition in vivo at 67.8 mg/kg (Rattus norvegicus [24]): 22%
inhibition in vivo at 67.8 mg/kg (Rattus norvegicus [25]): 13%
inhibition in vivo at 67.8 mg/kg (Rattus norvegicus [26]): 47%

t1/2 [4]: 18 h
t1/2 [6]: 67 h
t1/2 [7]: 22 h
t1/2 [8]: 50 h
SMILES: COc1ccc2cc(C(C)C(=O)OCC(OC(C)=O)C(OC(C)=O)C(OC(C)=O)C(/C=N/[C@@H](Cc3ccc(O)cc3)C(=O)O)OC(C)=O)ccc2c1 (stereo not given in full)
inhibition in vivo at 69.4 mg/kg (Rattus norvegicus [27]): 47%
inhibition in vivo at 69.4 mg/kg (Rattus norvegicus [28]): 67%
inhibition in vivo at 69.4 mg/kg (Rattus norvegicus [29]): 25%
inhibition in vivo at 69.4 mg/kg (Rattus norvegicus [30]): 60%
inhibition in vivo at 69.4 mg/kg (Mus musculus [31]): 82%
